# Measurements from publication PMC5391968, “Comparison of cell-based assays for the identification and evaluation of competitive CXCR4 inhibitors” (PLoS ONE, 2017).
# Read-outs that look alike come from different tables or passages of the source.
# How the values were obtained:
# [1] = target: T1, CXCR4 (Homo sapiens, UniProt P61073); experiment: Calcium mobilization assay (FLIPR Tetra) in U87.CD4.CXCR4 cells; assay type: cell-based; conditions: U87.CD4.CXCR4 cells
# Method: U87.CD4.CXCR4 cells were seeded at 2x10^4 cells per well in gelatin-coated black-walled 96-well plates [0.1% gelatin in DPBS, incubated at RT for two hours and washed once with DPBS] and incubated at 37°C and 5% CO2 overnight. […] Fluo-2 AM loaded cells were washed with assay buffer before being incubated in the FLIPR Tetra system at 37°C for five minutes. At the start of the kinetic measurement, compounds were added to the cell plate by the internal robotic system followed by an incubation period of 10 minutes during which changes in the intracellular calcium level were continuously measured by the FLIPR Tetra. […] Each condition was measured in triplicate and repeated several times as further indicated (see Results).
# [2] = test system: CXCR4-positive Jurkat cells; experiment: cells; assay type: cell-based, human; conditions: for IC50: read-out: IC50 Chemotaxis
# Method: Jurkat cells were washed twice in assay buffer (see above), dispensed into a 96-well plate (5x10^5 cells per well) containing serial dilutions of compounds (in assay buffer) and incubated at RT in the dark for 10 minutes. […] Suspensions of 1.87x10^4 cells were transferred to the chemotaxis insert plate. […] After removal of the insert plate, migrated cells were centrifuged and resuspended in DPBS containing flow cytometry cell counting beads ([…] Fluorescent Particles; Gentaur, London, UK). Both migrated cells and particles were counted by flow cytometry (FACSCanto II; Becton Dickinson). Each compound concentration was tested in triplicate. Data were analyzed using the FlowJo software and the total number of migrated cells was calculated, according to the counted and total number of beads present in the sample.
# [3] = test system: HIV-1 NL4-3 (X4); experiment: microbe, parasite or virus in culture; assay type: cell-based
# Method: PHA-stimulated PBMCs at 5x10^5 cells per sample, pre-incubated with test compounds dissolved in cell culture medium containing IL-2 (2 ng/ml; […] After three days, fresh culture medium with IL-2 was added. Ten days post infection cell supernatant was collected for HIV-1 p24 core antigen enzyme-linked immunosorbent assay (ELISA; Perkin Elmer, Boston, MA, USA) according to the manufacturer’s protocol. In the antiviral assays, each condition was tested in duplicate.
# [4] = test system: HIV-1 NL4-3 (X4); experiment: microbe, parasite or virus in culture; assay type: cell-based; remark: listed apart in the source
# Method: The anti-HIV replication assays in MT-4 cells and PHA-stimulated PBMCs have been described previously. The HIV-1 T-tropic molecular clone NL4-3 (X4) was obtained from the National Institute of Allergy and Infectious Disease (NIAID) AIDS reagent program (Bethesda, MD, USA). Briefly, 5x10^4 MT-4 cells (in cell culture medium) were treated with different concentrations of compound at 37°C for 30 minutes. Afterwards, a 50% tissue culture infectious dose of the NL4-3 viral stock was added to the cell-compound mixtures. Four days post infection, the cytopathic effect was evaluated microscopically and cell viability was assessed with the MTS method, as described above.
# In the antiviral assays, each condition was tested in duplicate.
# [5] = target: T2, CXCR7 (Homo sapiens, UniProt P25106); experiment: CXCL12 binding on CXCR7-transfected U87 cells (U87.CD4.CXCR7); conditions: data not shown
# T2 construct: expressed in transfected cells; host or cells: U87.CD4 cells transfected with pTEJ-8 plasmid carrying human CXCR7 cDNA
# T2 sequence (P25106 whole entry): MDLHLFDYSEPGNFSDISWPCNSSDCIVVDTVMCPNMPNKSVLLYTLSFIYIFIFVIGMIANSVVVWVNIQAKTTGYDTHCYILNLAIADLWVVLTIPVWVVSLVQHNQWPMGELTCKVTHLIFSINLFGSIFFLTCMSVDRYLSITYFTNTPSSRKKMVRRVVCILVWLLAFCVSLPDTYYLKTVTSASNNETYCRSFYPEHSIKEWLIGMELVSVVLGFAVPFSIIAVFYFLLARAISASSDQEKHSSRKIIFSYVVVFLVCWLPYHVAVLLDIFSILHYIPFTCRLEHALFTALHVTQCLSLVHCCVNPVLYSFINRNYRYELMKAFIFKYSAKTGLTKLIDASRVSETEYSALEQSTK
# [6] = target: T1, CXCR4; experiment: CXCR4 internalization assay in SUP-T1 cells; assay type: cell-based; set-up: CXCR4 receptors endogenously expressed on SUP-T1 cells; endogenous in cells; host or cells: SUP-T1 (ATCC); conditions: for induction of CXCR4 internalization (agonistic effect): 50 μM, in absence of CXCL12, data not shown
# Method: T-lymphoblastic SUP-T1 cells were washed twice in DPBS containing 2% FBS. Afterwards, cells were first incubated with the PE-labeled rat anti-human CXCR4 mAb (clone 1D9; 2 μg/ml in DPBS/2% FBS; BD Pharmingen) on ice for 45 minutes. […] SUP-T1 cells were subsequently washed once with ice cold DPBS and twice with ice cold assay buffer (see above) before being treated with test compound on ice for 15 minutes. […] Samples were immediately analyzed with the FACSCalibur flow cytometer (Becton Dickinson) whereby the measured fluorescence corresponds to the amount of […] CXCR4 receptors. Data were further analyzed with the FlowJo software.
# [7] = target: T1, CXCR4; experiment: CXCL12^AF647 binding assay on Jurkat cells; conditions: Jurkat cells, 2.9 nM CXCL12^AF647, mean ± SEM; read-out: IC50 CXCL12-CXCR4 binding interaction
# Method: In brief, Jurkat cells were washed twice in assay buffer [Hank’s Balanced Salt Solution (HBSS; Thermo Fisher Scientific), 20 mM HEPES buffer (Thermo Fisher Scientific), 0.2% bovine serum albumin (Sigma-Aldrich), pH 7.4]. […] Afterwards, cells were washed twice in assay buffer and subsequently fixed in 1% paraformaldehyde in Dulbecco’s phosphate buffered saline (DPBS). Samples were analyzed with the FACSArray flow cytometer (Becton Dickinson, NJ, USA). Data were further analyzed with the FlowJo Software (Ashland, Oregon, USA).
# [8] = Jurkat cells, 6.25 nM CXCL12, two hours, mean ± SEM
# [9] = PHA-stimulated PBMCs, ten days post infection, p24 Ag ELISA, mean ± SEM, read-out: IC50 HIV-1 (X4) NL4-3 replication, PHA-stimulated PBMCs
# [10] = MT-4 cells, four days post infection, MTS, mean ± SEM, read-out: IC50 HIV-1 (X4) NL4-3 replication, MT-4 cells
# [11] = Human immunodeficiency virus 1, NL43, PBMC, 240 h, PHA-stimulated PBMCs, ten days post infection, p24 Ag ELISA, mean ± SEM, read-out: IC50 HIV-1 (X4) NL4-3 replication, PHA-stimulated PBMCs
# [12] = Human immunodeficiency virus 1, NL43, MT4, 96 h, MT-4 cells, four days post infection, MTS, mean ± SEM, read-out: IC50 HIV-1 (X4) NL4-3 replication, MT-4 cells
# T1 sequence (P61073 whole entry): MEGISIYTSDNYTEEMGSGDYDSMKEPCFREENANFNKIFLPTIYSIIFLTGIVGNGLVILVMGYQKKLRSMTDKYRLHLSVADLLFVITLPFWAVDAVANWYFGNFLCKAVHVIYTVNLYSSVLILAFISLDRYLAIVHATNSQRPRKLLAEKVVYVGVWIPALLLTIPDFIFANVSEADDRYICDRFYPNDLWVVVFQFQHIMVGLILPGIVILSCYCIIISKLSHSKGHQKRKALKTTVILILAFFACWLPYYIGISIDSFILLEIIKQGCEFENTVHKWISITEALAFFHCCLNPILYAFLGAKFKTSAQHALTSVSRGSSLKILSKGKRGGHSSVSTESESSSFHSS
"IC50 ([2]; Homo sapiens, Jurkat, 2 h)","IC50 [3, 11]","IC50 [4, 12]",Compound,"IC50 [2, 8]","IC50 [3, 9]","IC50 [4, 10]",inhibition of CXCL12 binding on CXCR7 [5],induction of CXCR4 internalization (agonistic effect) [6],further results
,,,"CXCL12: Recombinant human CXCL12, endogenous chemokine ligand of CXCR4",,,,,,"EC90 ([1]; CXCL12 alone, read-out: EC90 increase of the calcium concentration): 10.9 nM"
,,,CC1(C)CN2C(CSC(=NC3CCCCC3)NC3CCCCC3)=CSC2=N1 [IT1t],79.1 ± 9.6 nM,19 ± 2.3 nM,14.2 ± 5.3 nM,,,
74.9 ± 17.7 nM,26.4 ± 6.1 nM,11.9 ± 4.6 nM,NCCCCN(Cc1nc2ccccc2[nH]1)[C@H]1CCCc2cccnc21 [AMD11070],,,,reduced CXCL12 binding on CXCR7 in the lower micromolar range,absence of an agonistic effect,
1430 nM,14.9 ± 3.2 nM,11.8 ± 3.4 nM,c1cc(CN2CCCNCCNCCCNCC2)ccc1CN1CCCNCCNCCCNCC1 [AMD3100],,,,,absence of an agonistic effect,
,,,c1ccc(CNCc2ccc(CN3CCCNCCNCCCNCC3)cc2)nc1 [AMD3465],116 ± 15.2 nM,27.2 ± 8.7 nM,21.8 ± 10.1 nM,,absence of an agonistic effect,"IC50 ([1]; 6.25 nM CXCL12, mean ± SEM, read-out: IC50 Calcium signaling (CXCL12-induced)): 53.4 ± 24.3 nM; IC50 [7]: 2.1 ± 0.24 nM; IC50 ([6]; SUP-T1 cells, 6.25 nM CXCL12, 37°C 30 minutes, mean ± SEM): 67.3 ± 11.3 nM"
,,,N=C(N)NCCC[C@H](NC(=O)[C@@H]1CSSC[C@H](NC(=O)[C@H](Cc2ccc3ccccc3c2)NC(=O)[C@H](CCCNC(=N)N)NC(=O)[C@@H](N)CCCNC(=N)N)C(=O)N[C@@H](Cc2ccc(O)cc2)C(=O)N[C@@H](CCCNC(N)=O)C(=O)N[C@@H](CCCCN)C(=O)N[C@H](CCCNC(N)=O)C(=O)N2CCC[C@H]2C(=O)N[C@@H](Cc2ccc(O)cc2)C(=O)N[C@@H](CCCNC(=N)N)C(=O)N[C@@H](CCCNC(N)=O)C(=O)N1)C(N)=O [TC14012],,,,reduced CXCL12 binding on CXCR7 in the lower micromolar range,absence of an agonistic effect,inhibition of migration ([2]; pretreated at concentrations as low as 200 nM): total inhibition of migration; IC50 ([3]; NL4-3 (X4)): 9.3 ± 4 nM; IC50 ([4]; NL4-3 (X4)): 7.2 ± 2.3 nM
